Measured values taken from patent publication US7772256B2, “2-heteroaryl substituted benzothiophenes and benzofuranes 709” (Astrazeneca AB, priority 2007, dated 2010).

Molecular target: T1, synthetic Aβ 1-40 (Homo sapiens, UniProt P05067)
T1 construct: synthetic Aβ 1-40
Experiment: Competition binding assay ([3H]PIB as radioligand)
Settings: 2.7 nM [3H]PIB radioligand, phosphate buffer pH 7.5, 30 min room temperature
Procedure: Competition binding was performed in 384-well FB filter plates using synthetic Aβ 1-40 in 2.7 nM of [^3H]PIB (or another ^3H-labeled radioligand when so mentioned) in phosphate buffer at pH 7.5, by adding various concentrations of non-radioactive compounds originally dissolved in DMSO. The binding mixture was incubated for 30 min at room temperature, followed by vacuum filtration, and subsequentially by washing twice with 1% Triton-X100. Scintillation fluid was thereafter added to the collected Aβ 1-40 on the filter plate, and the activity of the bound remaining radioligand ([^3H]PIB or another ^3H-labeled radioligand) was measured using 1450 Microbeta from PerkinElmer. Specific binding was determined according to the competion binding assay described herein. The determined IC50's in the competion binding assays (using [^3H]PIB as radioligand) of compounds of the present invention are shown in Table 1.

T1 sequence (P05067 672-711 limits assumed): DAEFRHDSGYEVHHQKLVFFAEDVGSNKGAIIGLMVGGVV

Row | SMILES | IC50 [nM]
1 | COc1ccc2nc(-c3cc4ccccc4o3)cn2c1 [2-(1-benzofuran-2-yl)-6-methoxyimidazo[1,2-a]pyridine] | 361
2 | CNc1ccc(-c2cc3cc(O)ccc3o2)c(F)n1 [2-(2-Fluoro-6-methylamino-pyridin-3-yl)-benzofuran-5-ol] | 18
3 | CNc1ccc(-c2cc3cc(O)ccc3o2)nc1F [2-(6-Fluoro-5-methylamino-pyridin-2-yl)-benzofuran-5-ol] | 44
4 | CNc1ccc(-c2cc3cc(O)ccc3o2)cn1 [2-(6-Methylamino-pyridin-3-yl)-benzofuran-5-ol] | 46
5 | COc1ccc2oc(-c3ccc(C(N)=O)nc3)cc2c1 [5-(5-Methoxy-benzofuran-2-yl)-pyridine-2-carboxylic acid amide] | 61
6 | NC(=O)c1ccc(-c2cc3cc(O)ccc3o2)nc1 [6-(5-Hydroxy-benzofuran-2-yl)-nicotinamide] | 43
7 | COc1ccc2oc(-c3ccc(C(N)=O)cn3)cc2c1 [6-(5-Methoxy-benzofuran-2-yl)-nicotinamide] | 33
8 | COc1ccc2oc(-c3ccc(N)nn3)cc2c1 [6-(5-Methoxy-benzofuran-2-yl)-pyridazin-3-ylamine] | 912
9 | CNc1ccc(-c2cc3cc(OC)ccc3o2)cn1 [[5-(5-Methoxy-benzofuran-2-yl)-pyridin-2-yl]-methylamine] | 66

The remaining compounds from weak to strong by IC50, led by results:

Row | IC50 [nM] | SMILES
10 | 2710 | Nc1ccc(-c2cc3cc(O)ccc3o2)nn1 [2-(6-Amino-pyridazin-3-yl)-benzofuran-5-ol]
11 | 600 | NC(=O)c1ccc(-c2cc3cc(O)ccc3o2)cn1 [5-(5-Hydroxy-benzofuran-2-yl)-pyridine-2-carboxylic acid amide]
12 | 32 | CNc1ncc(-c2cc3cc(O)ccc3o2)cc1F [2-(5-fluoro-6-methylamino-pyridin-3-yl)-benzofuran-5-ol]
13 | 30 | NC(=O)c1ccc(-c2cc3ccccc3s2)cn1 [5-(1-benzothien-2-yl)pyridine-2-carboxamide]
14 | 19 | NC(=O)c1ccc(-c2cc3ccccc3o2)cn1 [5-(1-Benzofuran-2-yl)pyridine-2-carboxamide]
